Reference: patent US20230203022A1, “HETEROCYCLE AND GLUTARIMIDE SKELETON-BASED COMPOUND AND APPLICATIONS THEREOF” (Shanghaitech University, priority 2020, published 2023)

Experiments:
Format in all cases: cell-based
[1] = test system: Mino (human mantle cell lymphoma cell); assay: Cell viability / proliferation inhibition IC50 in Mino lymphoma cells, 72 h, WST; details: Mino cell line, WST reagent
Source text: (§1) The tested cell line used were: Multiple myeloma cell line MM.1S, Mino (human mantle cell lymphoma cell), SR (anaplastic large cell lymphoma cell), PBMC (peripheral blood mononuclear cell), which were purchased from ATCC (American type Culture Collection). The medium was RPMI1640 supplemented with 10% FBS (fetal calf serum) and 1% Penicillin-Streptomycin. The cells used were identified as correct cells by STR cells, and were negative for mycoplasma through routine inspections.
(§2) IC50 values of the compounds of the present disclosure (including examples 1-11 compounds) were measured using Cell Titer Blue, Cell Titer GLO, or WST reagent from Promega Company. Assay details are as follows: Cells were seeded in 100 µL RPMI1640 complete medium containing serum at a density of 15,000 cells/well. After 24 h, the inoculated cells were treated with diluted commercial inhibitor and the compounds of the present disclosure to be tested after serial dilution. After the cells were treated with the compounds of the present disclosure to be tested (including examples 1-11 compounds) for 72 h, cell viability was determined after adding the cell viability detection kit listed above according to the reagent operating instructions. The negative control was DMSO, and the positive control was a commercial inhibitor, both of which were used to treat the cells through the same method as that of the compounds of the present disclosure. The growth inhibition of the compounds of the present disclosure on cells was plotted by Prism Graphpad software, and the IC50 values of the compounds of the present disclosure were calculated therefrom.
(§3) We tested the activities of the compounds of the present invention (including the compounds in Table 1 and Examples 1-11 compounds) in MM.1S cell, mantle cell lymphoma Mino cells, and anaplastic large cell lymphoma SR cells through a dose-dependent manner. These cells overexpressed IKZF⅓ and was not sensitive to existing immunomodulatory drugs. The cells were treated with the compounds of the present invention at 10 different successively decreasing concentrations (starting at the highest concentration of 10 µM; 5-fold serial dilutions) for 72 h, and then the cell viability determination was performed in accordance with CCK-8 reagent operating instructions. The experiment was repeated more than three times.

[2] = test system: Multiple myeloma cell line MM.1S; assay: Cell viability / proliferation inhibition IC50 in MM.1S cells, 72 h; details: Homo sapiens, MM1.S, 72 h treatment
Source text: as §1, §2, §3

TNF-α = TNF-α inhibition in LPS-stimulated PBMC cells (ELISA); details: LPS 1 µg/ml, 18-20 h
Source text: as §1
PBMC cells were cultured at 37° C. in 5% CO2 atmosphere, and then seeded in 96-well plates at 1×10^6 cells/well. […] Cells were pretreated with compounds and vehicle control (DMSO) for 1 h, then stimulated with lipopolysaccharide (LPS; 1 µg/ml), and continually cultured for 18-20 h. Then, the supernatant was collected, and tested for TNF-α level by ELISA kit. IC50 was then calculated by Graphpad Prism 7.0.

[3] = test system: SR (anaplastic large cell lymphoma cell); assay: Cell viability / proliferation inhibition IC50 in SR lymphoma cells, 72 h, WST; details: SR cell line, WST reagent
Source text: as §1, §2
We tested the activities of the compounds of the present invention (including the compounds in Table 1 and Examples 1-11 compounds) in MM.1S cell, mantle cell lymphoma Mino cells, and anaplastic large cell lymphoma SR cells through a dose-dependent manner. These cells overexpressed IKZF⅓ and was not sensitive to existing immunomodulatory drugs. […]

IKZF3 = target: T1, IKZF3 (Homo sapiens, UniProt Q96SW2+Q9UKT9); assay: Western blotting assay of IKZF3 degradation in MM.1S cells; details: 16 h, Western blot, FIG. 1
T1 construct: degradation of IKZF1 and IKZF3 proteins caused by the compounds of the present invention in multiple myeloma cells MM.1S; endogenous in cells; host or cells: MM.1S (ATCC)
Procedure: Most antibodies were purchased from Cell Signaling Technology, including IKZF1 (#9034S), IKZF3(#15103S). GAPDH antibody was purchased from Abcam Company.
Tumor cells were plated in a 24-well plate at a cell seeding density of 3×10^5 cells/mL, with 1 mL culture media per well. After 24 h, the cells were treated with different concentrations of the compounds of the present disclosure. After 16 hours, the cells were collected, and washed with PBS. The supernatant was discarded, and the cells were placed on ice, and treated with RIPA protein lysate containing Halt protease and phosphatase inhibitor. The lysate was centrifuged at 10000 RPM at 4° C. for 10 minutes, and the supernatant was collected. An equal amount of proteins were loaded in 4X SDS sample solution, denatured at 95° C. for 5 minutes, and then freezed to -20° C. or directly subjected to protein electrophoresis (4-15% gradient gel, Bio-rad). […]
DC50 value (the drug concentration required for degrading proteins by 50%, abbreviated as DC50) reads method: comparing the gray values of the Western blotting bands for the drug treatment with the gray values of the Western blotting band for the DMSO control, and reading the drug concentration range corresponding to the gray value of the Western blotting bands for the drug treatment which is equal to half of the gray value of the Western blotting band for the DMSO control. […]

T1 sequence (Q9UKT9 whole entry): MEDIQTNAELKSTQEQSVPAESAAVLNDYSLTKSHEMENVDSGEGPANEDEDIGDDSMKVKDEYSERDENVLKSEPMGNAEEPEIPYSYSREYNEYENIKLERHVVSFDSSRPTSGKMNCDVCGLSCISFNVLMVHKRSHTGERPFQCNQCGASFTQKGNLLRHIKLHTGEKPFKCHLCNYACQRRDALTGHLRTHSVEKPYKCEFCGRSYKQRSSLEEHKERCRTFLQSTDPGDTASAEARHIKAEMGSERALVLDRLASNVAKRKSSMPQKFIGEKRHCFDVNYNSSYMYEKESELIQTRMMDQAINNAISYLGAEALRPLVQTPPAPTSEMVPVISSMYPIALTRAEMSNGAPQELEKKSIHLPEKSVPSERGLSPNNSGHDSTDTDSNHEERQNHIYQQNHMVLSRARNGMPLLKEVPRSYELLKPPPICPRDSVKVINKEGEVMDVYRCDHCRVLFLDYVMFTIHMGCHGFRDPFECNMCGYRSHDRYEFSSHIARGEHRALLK
T1 sequence (Q96SW2 whole entry): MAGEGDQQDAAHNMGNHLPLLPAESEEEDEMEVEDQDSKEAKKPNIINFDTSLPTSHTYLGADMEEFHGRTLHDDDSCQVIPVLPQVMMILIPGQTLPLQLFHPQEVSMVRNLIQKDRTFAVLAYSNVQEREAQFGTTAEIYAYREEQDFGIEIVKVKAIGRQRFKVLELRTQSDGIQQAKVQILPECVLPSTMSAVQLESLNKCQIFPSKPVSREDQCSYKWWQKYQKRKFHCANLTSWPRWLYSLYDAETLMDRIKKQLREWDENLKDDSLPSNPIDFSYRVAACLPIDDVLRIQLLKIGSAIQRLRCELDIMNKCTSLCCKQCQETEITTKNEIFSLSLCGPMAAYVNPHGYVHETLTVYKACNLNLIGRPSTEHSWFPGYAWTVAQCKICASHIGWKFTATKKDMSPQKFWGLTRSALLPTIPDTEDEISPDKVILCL
T1 sequence (Q16531 whole entry partner): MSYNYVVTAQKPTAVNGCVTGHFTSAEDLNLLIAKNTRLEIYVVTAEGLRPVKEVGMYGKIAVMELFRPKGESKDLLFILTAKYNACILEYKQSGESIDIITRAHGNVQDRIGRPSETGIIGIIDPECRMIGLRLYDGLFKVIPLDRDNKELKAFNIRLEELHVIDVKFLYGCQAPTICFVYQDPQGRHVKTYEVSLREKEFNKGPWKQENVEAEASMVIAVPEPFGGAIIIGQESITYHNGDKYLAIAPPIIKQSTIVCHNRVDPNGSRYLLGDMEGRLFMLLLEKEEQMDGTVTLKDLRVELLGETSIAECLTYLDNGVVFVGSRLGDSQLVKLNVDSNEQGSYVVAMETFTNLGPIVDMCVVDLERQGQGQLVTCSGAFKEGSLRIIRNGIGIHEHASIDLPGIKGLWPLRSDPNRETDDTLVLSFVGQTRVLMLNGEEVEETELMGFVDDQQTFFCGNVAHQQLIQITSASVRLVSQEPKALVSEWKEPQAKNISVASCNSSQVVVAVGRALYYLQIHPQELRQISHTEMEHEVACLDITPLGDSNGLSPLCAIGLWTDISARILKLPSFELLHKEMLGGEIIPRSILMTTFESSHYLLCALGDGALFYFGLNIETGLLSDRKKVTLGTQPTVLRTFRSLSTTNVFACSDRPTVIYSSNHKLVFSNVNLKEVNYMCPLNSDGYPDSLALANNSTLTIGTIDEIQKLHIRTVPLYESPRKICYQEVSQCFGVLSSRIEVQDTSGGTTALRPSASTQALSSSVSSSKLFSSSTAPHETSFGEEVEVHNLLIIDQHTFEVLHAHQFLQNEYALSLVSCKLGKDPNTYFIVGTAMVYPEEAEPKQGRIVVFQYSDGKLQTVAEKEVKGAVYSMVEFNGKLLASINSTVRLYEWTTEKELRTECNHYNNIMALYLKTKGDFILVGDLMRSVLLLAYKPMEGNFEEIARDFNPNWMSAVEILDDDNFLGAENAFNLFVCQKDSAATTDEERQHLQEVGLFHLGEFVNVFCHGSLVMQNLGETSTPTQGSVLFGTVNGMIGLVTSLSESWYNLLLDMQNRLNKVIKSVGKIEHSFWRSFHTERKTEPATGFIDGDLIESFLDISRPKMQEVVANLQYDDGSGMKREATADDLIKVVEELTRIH

| SMILES | IC50 [2] [nM] | IC50 (TNF-α) [nM] | also measured |
| --- | --- | --- | --- |
| Nc1cccc2c1C(=O)N(C1CCC(=O)NC1=O)C2=O (centres unmarked) [Pomalidomide, reference compound] | – | – | IC50 ([1]; Homo sapiens, MINO): 48 nM |
| O=C1CCC(N2Cc3c(SCc4cc5cc(C(=O)NC67CC8CC(CC(C8)C6)C7)ccc5s4)cccc3C2=O)C(=O)N1 (centres unmarked) [SIAIS338091, N-(adamantan-1-yl)-2-(((2-(2,6-dioxopiperidin-3-yl)-1-oxoisoindolin-4-yl)thio)methyl)benzo[b]thiophene-5-carboxamide] | 0.02 | < 1 | – |
| O=C1CCC(N2Cc3c(SCc4ccc(CNC56CC7CC(CC(C7)C5)C6)o4)cccc3C2=O)C(=O)N1 (centres unmarked) [SIAIS313118, 3-(4-(((5-((adamantan-1-ylamino)methyl)furan-2-yl)methyl)thio)-1-oxoisoindolin-2-yl)piperidine-2,6-dione] | 0.09 ± 0.02 | – | – |
| O=C1CCC(N2Cc3c(SCc4nc(CN[C@H]5[C@H]6CC7CC(C6)C[C@@H]5C7)cs4)cccc3C2=O)C(=O)N1 (some centres unmarked) [SIAIS313185, 3-(4-(((4-((adamantan-2-ylamino)methyl)thiazol-2-yl)methyl)thio)-1-oxoisoindolin-2-yl)piperidine-2,6-dione] | 0.16 ± 0.02 | – | – |
| O=C1CCC(N2Cc3c(SCc4csc(CNC56CC7CC(CC(C7)C5)C6)n4)cccc3C2=O)C(=O)N1 (centres unmarked) [SIAIS313160, 3-(4-(((2-((adamantan-1-ylamino)methyl)thiazol-4-yl)methyl)thio)-1-oxoisoindolin-2-yl)piperidine-2,6-dione] | 0.13 ± 0.03 | < 1 | – |
| O=C1CCC(N2Cc3c(SCc4csc(C(=O)NC56CC7CC(CC5C7)C6)n4)cccc3C2=O)C(=O)N1 (centres unmarked) [SIAIS355073, 4-(((2-(2,6-dioxopiperidin-3-yl)-1-oxoisoindolin-4-yl)thio)methyl)-N-(octahydro-2,5-methanopentalen-6a-yl)thiazole-2-carboxamide] | 0.51 ± 0.25 | – | – |
| O=C1CCC(N2Cc3c(SCc4ccc5cc(CN[C@]67CC8CC(C[C@@H](C8)C6)C7)ccc5n4)cccc3C2=O)C(=O)N1 (some centres unmarked) [SIAIS338048, 3-(4-(((6-((adamantan-1-ylamino)methyl)quinolin-2-yl)methyl)thio)-1-oxoisoindolin-2-yl)piperidine-2,6-dione] | 0.06 ± 0.04 | – | – |
| O=C1CCC(N2C(=O)c3cccc(NCc4ccc(CNC56CC7CC(CC(C7)C5)C6)cn4)c3C2=O)C(=O)N1 (centres unmarked) [SIAIS355067, 4-(((5-((adamantan-1-ylamino)methyl)pyridin-2-yl)methyl)amino)-2-(2,6-dioxopiperidin-3-yl)isoindoline-1,3-dione] | 4.46 ± 0.18 | < 5 | – |
| Nc1cccc2c1CN(C1CCC(=O)NC1=O)C2=O (centres unmarked) [Lenalidomide, reference compound] | – | 10 to 100 | – |
| O=C1CCC(N2Cc3c(SCc4nc(CNC56CC7CC(CC(C7)C5)C6)cs4)cccc3C2=O)C(=O)N1 (centres unmarked) [SIAIS287129, 3-(4-(((4-((adamantan-1-ylamino)methyl)thiazol-2-yl)methyl)thio)-1-oxoisoindolin-2-yl)piperidine-2,6-dione] | 0.181 | – | IC50 ([1]; Homo sapiens, MINO): 2.59 nM; IC50 ([3]; Homo sapiens, SR): 4.02 nM |
| O=C1CCC(N2Cc3c(SCc4cc5cc(CNC67CC8CC(CC(C8)C6)C7)ccc5o4)cccc3C2=O)C(=O)N1 (centres unmarked) [SIAIS287116, 3-(4-(((5-((adamantan-1-ylamino)methyl)benzofuran-2-yl)methyl)thio)-1-oxoisoindolin-2-yl)piperidine-2,6-dione] | 0.003 | < 1 | IC50 ([1]; Homo sapiens, MINO): ~0.39 nM; IC50 [1]: 0.387 nM; concentration at which IKZF3 protein is significantly degraded (IKZF3): less than 0.01 nM; IC50 ([3]; Homo sapiens, SR): ~0.5 nM; IC50 [3]: 0.454 nM |
| O=C1CCC(N2Cc3c(SCCn4cc(CN[C@]56CC7CC(C[C@@H](C7)C5)C6)nn4)cccc3C2=O)C(=O)N1 (some centres unmarked) [SIAIS287097, 3-(4-((2-(4-((adamantan-1-ylamino)methyl)-1H-1,2,3-triazol-1-yl)ethyl)thio)-1-oxoisoindolin-2-yl)piperidine-2,6-dione] | – | < 5 | – |
